Test results: patent publication US20250170248A1, “SMARCA DEGRADERS AND USES THEREOF” (Kymera Therapeutics, Inc., priority 2021, published 2025)

Tests used:
Assay type in all cases: cell-based
SMARCA2 [1] = molecular target: T1, SMARCA2 (Homo sapiens, UniProt P51531); test: SMARCA2 Western blot degradation in MV4-11 cells; parameters: SMARCA2/SMARCA4 protein degradation selectivity in MV4-11 cells; endogenous in cells; host or cells: MV4-11; conditions: for Dmax: MV4-11, MV4-11 cells, read-out: SMARCA2 MSD MV411 degradation 24 h: average Dmax %; for Dmax / DC50 / SMARCA2 MSD MV411 degradation 24 h: average Dmax %: 24 h; for DC50 / Selectivity in MV411 / SMARCA2 MSD MV411 degradation 24 h: average Dmax %: MV4-11 cells; for DC50: read-out: SMARCA2 MSD MV411 degradation 24 h: Mean external-Abs DC50; for Selectivity in MV411: SMARCA2/4 selectivity
SMARCA4 = molecular target: T2, SMARCA4 (Homo sapiens, UniProt P51532); test: SMARCA4 Western blot degradation in MV4-11 cells; conditions: for Dmax: MV4-11, MV4-11 cells, read-out: SMARCA4 MSD MV411 degradation 24 h: average Dmax %; for Dmax / DC50: 24 h; for DC50 / SMARCA4 MSD MV411 degradation 24 h: average Dmax %: MV4-11 cells; for DC50: read-out: SMARCA4 MSD MV411 degradation 24 h: Mean external-Abs DC50
T2 construct: SMARCA2/SMARCA4 protein degradation selectivity in MV4-11 cells; endogenous in cells; host or cells: MV4-11
Procedure, shortened: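 24 h compound exposure, MV4-11; RIPA lysates → SDS-PAGE → NC membrane; anti-SMARCA2/BRM, anti-BRG1, β-actin loading control; LI-COR fluorescence read. DC50 and Dmax at 24 h reported as letter bins.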

SMARCA2 [2] = molecular target: T1, SMARCA2; test: MSD SMARCA2 degradation in A549 cell line; conditions: for Dmax: A549, A549 cells; for Dmax / DC50: 24 h; for DC50 / SMARCA2 MSD A549 degradation 24 h: Average Dmax %: A549 cells; for DC50: read-out: SMARCA2 MSD A549 degradation 24 h: Average external-Abs DC50
Procedure, shortened: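 A549 cells treated 24 h with compound, 3-fold series from 1000 nM. Lysates captured on MSD plates and SMARCA2 quantified with anti-SMARCA2 and SULFO-TAG secondary antibodies (electrochemiluminescence). DC50 and Dmax (% degradation at 24 h) reported as letter bins.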

T2 sequence (P51532 whole entry): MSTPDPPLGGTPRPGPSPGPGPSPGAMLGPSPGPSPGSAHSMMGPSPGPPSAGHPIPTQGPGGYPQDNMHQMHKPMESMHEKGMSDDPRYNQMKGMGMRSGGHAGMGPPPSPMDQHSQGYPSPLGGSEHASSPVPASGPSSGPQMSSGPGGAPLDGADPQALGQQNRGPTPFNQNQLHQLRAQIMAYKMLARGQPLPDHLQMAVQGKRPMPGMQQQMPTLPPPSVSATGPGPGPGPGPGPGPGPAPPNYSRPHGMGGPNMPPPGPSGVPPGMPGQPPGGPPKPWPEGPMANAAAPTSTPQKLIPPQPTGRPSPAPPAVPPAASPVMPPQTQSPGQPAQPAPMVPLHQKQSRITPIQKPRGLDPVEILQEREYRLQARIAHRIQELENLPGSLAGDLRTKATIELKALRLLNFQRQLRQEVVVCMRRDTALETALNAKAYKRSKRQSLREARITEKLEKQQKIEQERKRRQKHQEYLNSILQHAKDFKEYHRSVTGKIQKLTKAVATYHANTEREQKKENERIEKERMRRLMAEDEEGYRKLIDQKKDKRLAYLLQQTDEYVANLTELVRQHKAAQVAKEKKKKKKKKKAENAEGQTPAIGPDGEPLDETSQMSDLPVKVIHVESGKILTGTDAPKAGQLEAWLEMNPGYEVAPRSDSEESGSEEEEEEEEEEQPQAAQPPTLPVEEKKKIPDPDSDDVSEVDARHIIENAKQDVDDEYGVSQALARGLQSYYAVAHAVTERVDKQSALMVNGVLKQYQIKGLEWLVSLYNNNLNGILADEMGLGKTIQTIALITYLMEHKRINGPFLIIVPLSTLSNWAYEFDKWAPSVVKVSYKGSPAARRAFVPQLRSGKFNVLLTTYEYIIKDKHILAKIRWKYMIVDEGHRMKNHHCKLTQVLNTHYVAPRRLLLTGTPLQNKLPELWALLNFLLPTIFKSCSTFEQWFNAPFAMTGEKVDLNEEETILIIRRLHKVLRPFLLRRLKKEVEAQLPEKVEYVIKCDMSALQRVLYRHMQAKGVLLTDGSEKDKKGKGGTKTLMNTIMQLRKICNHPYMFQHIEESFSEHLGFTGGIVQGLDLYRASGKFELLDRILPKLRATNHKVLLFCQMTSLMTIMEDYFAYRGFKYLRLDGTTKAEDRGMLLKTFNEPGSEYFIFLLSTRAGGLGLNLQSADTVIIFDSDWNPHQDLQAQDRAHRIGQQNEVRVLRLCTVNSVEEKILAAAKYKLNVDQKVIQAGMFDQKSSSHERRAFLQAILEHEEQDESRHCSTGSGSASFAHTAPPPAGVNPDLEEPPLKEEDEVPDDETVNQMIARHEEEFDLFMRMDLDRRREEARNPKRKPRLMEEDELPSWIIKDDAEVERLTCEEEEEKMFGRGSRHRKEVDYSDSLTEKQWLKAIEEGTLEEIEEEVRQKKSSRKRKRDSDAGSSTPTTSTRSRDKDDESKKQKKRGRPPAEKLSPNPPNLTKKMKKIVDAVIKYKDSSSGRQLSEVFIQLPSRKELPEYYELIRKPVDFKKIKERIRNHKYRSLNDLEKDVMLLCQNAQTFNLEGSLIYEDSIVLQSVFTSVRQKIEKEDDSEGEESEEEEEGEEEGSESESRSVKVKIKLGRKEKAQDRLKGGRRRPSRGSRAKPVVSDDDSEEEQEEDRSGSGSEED
T1 sequence (P51531 whole entry): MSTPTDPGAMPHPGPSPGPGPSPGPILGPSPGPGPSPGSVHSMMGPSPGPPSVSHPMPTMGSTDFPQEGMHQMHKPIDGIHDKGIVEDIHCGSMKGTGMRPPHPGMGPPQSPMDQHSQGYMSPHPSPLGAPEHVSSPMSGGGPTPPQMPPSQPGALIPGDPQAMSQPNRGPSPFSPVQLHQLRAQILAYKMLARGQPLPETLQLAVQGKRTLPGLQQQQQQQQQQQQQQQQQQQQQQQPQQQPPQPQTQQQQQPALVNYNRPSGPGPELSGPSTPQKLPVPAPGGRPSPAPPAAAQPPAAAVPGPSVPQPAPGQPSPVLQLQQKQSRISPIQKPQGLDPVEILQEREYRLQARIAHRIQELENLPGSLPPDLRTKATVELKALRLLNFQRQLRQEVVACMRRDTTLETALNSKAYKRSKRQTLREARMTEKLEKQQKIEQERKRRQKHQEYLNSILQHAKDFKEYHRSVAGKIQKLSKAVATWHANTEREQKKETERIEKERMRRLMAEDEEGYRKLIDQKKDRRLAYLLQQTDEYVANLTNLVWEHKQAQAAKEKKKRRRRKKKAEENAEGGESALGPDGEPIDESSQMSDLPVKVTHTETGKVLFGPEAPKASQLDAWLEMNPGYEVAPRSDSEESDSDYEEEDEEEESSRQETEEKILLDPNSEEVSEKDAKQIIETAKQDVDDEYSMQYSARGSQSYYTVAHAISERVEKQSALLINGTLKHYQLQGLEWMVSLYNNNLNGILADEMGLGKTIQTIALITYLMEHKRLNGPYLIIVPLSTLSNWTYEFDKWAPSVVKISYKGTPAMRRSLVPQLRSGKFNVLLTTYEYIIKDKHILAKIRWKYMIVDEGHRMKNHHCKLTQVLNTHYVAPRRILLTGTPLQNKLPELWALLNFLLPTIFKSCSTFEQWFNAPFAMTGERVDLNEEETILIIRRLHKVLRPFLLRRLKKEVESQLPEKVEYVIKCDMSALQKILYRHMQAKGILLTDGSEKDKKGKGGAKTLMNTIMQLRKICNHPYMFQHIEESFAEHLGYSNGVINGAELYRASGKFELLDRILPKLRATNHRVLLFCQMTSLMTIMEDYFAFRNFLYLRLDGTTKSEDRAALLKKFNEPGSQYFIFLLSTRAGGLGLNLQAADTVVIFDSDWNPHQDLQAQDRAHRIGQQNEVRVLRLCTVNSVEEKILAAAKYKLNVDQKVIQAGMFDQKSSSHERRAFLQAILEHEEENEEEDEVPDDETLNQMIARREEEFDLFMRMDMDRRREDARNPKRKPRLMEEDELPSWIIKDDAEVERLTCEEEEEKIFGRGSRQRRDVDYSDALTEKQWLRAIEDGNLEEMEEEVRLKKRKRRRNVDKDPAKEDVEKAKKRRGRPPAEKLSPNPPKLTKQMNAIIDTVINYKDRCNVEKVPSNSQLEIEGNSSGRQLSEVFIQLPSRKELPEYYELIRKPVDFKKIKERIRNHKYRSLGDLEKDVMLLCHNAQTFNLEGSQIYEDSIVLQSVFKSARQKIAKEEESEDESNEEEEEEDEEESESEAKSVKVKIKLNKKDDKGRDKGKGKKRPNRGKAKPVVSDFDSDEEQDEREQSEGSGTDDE

SMILES | Dmax (SMARCA2 [1]) | DC50 (SMARCA2 [1]) | Selectivity in MV411 (SMARCA2 [1]) | Dmax (SMARCA4) | DC50 (SMARCA4) | Dmax (SMARCA2 [2]) | DC50 (SMARCA2 [2]) | SMARCA2 MSD MV411 degradation 24 h: average Dmax % (SMARCA2 [1]) | SMARCA4 MSD MV411 degradation 24 h: average Dmax % (SMARCA4) | SMARCA2 MSD A549 degradation 24 h: Average Dmax % (SMARCA2 [2])
Cc1ncsc1-c1ccc(CNC(=O)[C@@H]2C[C@@H](O)CN2C(=O)[C@@H](NC(=O)C2(F)CC2)C(C)(C)C)c(O[C@H]2CC[C@@H](N3CCC(c4cnc(N5CCc6[nH]c7nnc(-c8ccccc8O)cc7c6[C@@H]5C)nc4)CC3)CC2)c1 (single isomer, unassigned) [I-34] | < 50% | 10 to 100 nM | B (B (>100-500 fold)) | 50 to 70% | > 100 nM | 70 to 90% | > 100 nM | – | – | –
C#CCOc1cc(C(C(=O)N2C[C@H](O)C[C@H]2C(=O)NCc2ccc(-c3scnc3C)cc2O[C@H]2CC[C@@H](N3CCC(c4cnc(N5CCc6[nH]c7nnc(-c8ccccc8O)cc7c6[C@H]5C)nc4)CC3)CC2)C(C)C)on1 (single isomer, unassigned) [I-37] | > 90% | < 1 nM | D (D (<10 fold)) | > 90% | < 1 nM | > 90% | < 10 nM | – | – | –
C#CCOc1cc(C(C(=O)N2C[C@H](O)C[C@H]2C(=O)NCc2ccc(-c3scnc3C)cc2O[C@H]2CC[C@H](N3CCC(c4cnc(N5CCc6[nH]c7nnc(-c8ccccc8O)cc7c6[C@H]5C)nc4)CC3)CC2)C(C)C)on1 (single isomer, unassigned) [I-38] | > 90% | < 1 nM | C (C (10-100 fold)) | > 90% | 10 to 100 nM | > 90% | 10 to 50 nM | – | – | –
C#CCOc1cc(C(C(=O)N2C[C@H](O)C[C@H]2C(=O)NCc2ccc(-c3scnc3C)cc2O[C@H]2CC[C@H](N3CCC(c4cnc(N5CCc6[nH]c7nnc(-c8ccccc8O)cc7c6[C@@H]5C)nc4)CC3)CC2)C(C)C)on1 (single isomer, unassigned) [I-40] | 70 to 90% | 10 to 100 nM | D (D (<10 fold)) | 70 to 90% | > 100 nM | 70 to 90% | > 100 nM | – | – | –
Cc1ncsc1-c1ccc(CNC(=O)[C@@H]2C[C@@H](O)CN2C(=O)C(c2cc(OCCN3CCC(N4CCC(c5cnc(N6CCc7[nH]c8nnc(-c9ccccc9O)cc8c7[C@@H]6C)nc5)CC4)CC3)no2)C(C)C)cc1 (single isomer, unassigned) [I-41] | > 90% | < 1 nM | D (D (<10 fold)) | > 90% | 10 to 100 nM | 70 to 90% | 50 to 100 nM | – | – | –
Cc1ncsc1-c1ccc(CNC(=O)[C@@H]2C[C@@H](O)CN2C(=O)[C@@H](NC(=O)C2(F)CC2)C(C)(C)C)c(O[C@H]2CC[C@H](N3CCC(N4CCC(c5cnc(N6CCc7[nH]c8nnc(-c9ccccc9O)cc8c7[C@@H]6C)nc5)CC4)CC3)CC2)c1 (single isomer, unassigned) [I-47] | > 90% | 1 to 10 nM | D (D (<10 fold)) | > 90% | 1 to 10 nM | > 90% | > 100 nM | – | – | –
Cc1ncsc1-c1ccc(CNC(=O)[C@@H]2C[C@@H](O)CN2C(=O)[C@@H](NC(=O)C2(F)CC2)C(C)(C)C)c(O[C@H]2CC[C@@H](N3CCC(N4CCC(c5cnc(N6CCc7[nH]c8nnc(-c9ccccc9O)cc8c7[C@@H]6C)nc5)CC4)CC3)CC2)c1 (single isomer, unassigned) [I-48] | 50 to 70% | 10 to 100 nM | C (C (10-100 fold)) | > 90% | > 100 nM | 70 to 90% | > 100 nM | – | – | –
Cc1ncsc1-c1ccc(CNC(=O)[C@@H]2C[C@@H](O)CN2C(=O)[C@@H](NC(=O)C2(F)CC2)C(C)(C)C)c(OCCCCN2CCC(c3cnc(N4CCN5c6cc(-c7ccccc7O)nnc6NC[C@H]5C4)nc3)CC2)c1 (single isomer, unassigned) [I-49] | > 90% | < 1 nM | C (C (10-100 fold)) | > 90% | 1 to 10 nM | > 90% | 10 to 50 nM | – | – | –
Cc1ncsc1-c1ccc(CNC(=O)[C@@H]2C[C@@H](O)CN2C(=O)C(c2cc(OCCCN3CCC(c4cnc(N5CCN6c7cc(-c8ccccc8O)nnc7NC[C@H]6C5)nc4)CC3)no2)C(C)C)cc1 (single isomer, unassigned) [I-53] | > 90% | < 1 nM | D (D (<10 fold)) | > 90% | 1 to 10 nM | > 90% | 10 to 50 nM | – | – | –
Cc1ncsc1-c1ccc(CNC(=O)[C@@H]2C[C@@H](O)CN2C(=O)[C@@H](NC(=O)N2CC3(CCC(N4CCC(c5cnc(N6CCc7[nH]c8nnc(-c9ccccc9O)cc8c7[C@@H]6C)nc5)CC4)CC3)C2)C(C)(C)C)cc1 (single isomer, unassigned) [I-63] | 70 to 90% | 10 to 100 nM | C (C (10-100 fold)) | 50 to 70% | > 100 nM | > 90% | 10 to 50 nM | – | – | –
C#Cc1ccc(CNC(=O)[C@@H]2C[C@@H](O)CN2C(=O)[C@@H](NC(=O)N2CC3(CC(N4CCC(c5cnc(N6CCc7[nH]c8nnc(-c9ccccc9O)cc8c7[C@H]6C)nc5)CC4)C3)C2)C(C)(C)C)cc1 (single isomer, unassigned) [I-73] | > 90% | 1 to 10 nM | C (C (10-100 fold)) | 70 to 90% | 10 to 100 nM | > 90% | < 10 nM | – | – | –
Cc1ncsc1-c1ccc(CNC(=O)[C@@H]2C[C@@H](O)CN2C(=O)[C@@H](NC(=O)[C@H]2CC3(C2)C[C@H](N2CCN(c4cnc(N5CCc6[nH]c7nnc(-c8ccccc8O)cc7c6[C@H]5C)nc4)CC2)C3)C(C)(C)C)cc1 (single isomer, unassigned) [I-76] | 70 to 90% | 1 to 10 nM | C (C (10-100 fold)) | 50 to 70% | > 100 nM | > 90% | 10 to 50 nM | – | – | –
Cc1ncsc1-c1ccc(CNC(=O)[C@@H]2C[C@@H](O)CN2C(=O)[C@@H](NC(=O)[C@H]2CC3(C2)C[C@H](N2CCN(c4cnc(N5CCc6[nH]c7nnc(-c8ccccc8O)cc7c6[C@H]5C)nc4)CC2)C3)C(C)(C)C)cc1 (single isomer, unassigned) [I-77] | – | 1 to 10 nM | C (C (10-100 fold)) | – | > 100 nM | – | 10 to 50 nM | B (B (>70-90% degradation)) | D (D (<50% degradation)) | A (A (>90% degradation))
Cc1ncsc1-c1ccc(CNC(=O)[C@@H]2C[C@@H](O)CN2C(=O)[C@@H](NC(=O)[C@H]2CC3(CC[C@H](N4CCN(c5cnc(N6CCc7[nH]c8nnc(-c9ccccc9O)cc8c7[C@H]6C)nc5)CC4)CC3)C2)C(C)(C)C)cc1 (single isomer, unassigned) [I-78] | 70 to 90% | 10 to 100 nM | B (B (>100-500 fold)) | < 50% | > 100 nM | > 90% | 10 to 50 nM | – | – | –
Cc1ncsc1-c1ccc(CNC(=O)[C@@H]2C[C@@H](O)CN2C(=O)[C@@H](NC(=O)[C@H]2CC3(CC[C@H](N4CCN(c5cnc(N6CCc7[nH]c8nnc(-c9ccccc9O)cc8c7[C@H]6C)nc5)CC4)CC3)C2)C(C)(C)C)cc1 (single isomer, unassigned) [I-79] | – | 10 to 100 nM | C (C (10-100 fold)) | – | > 100 nM | – | > 100 nM | B (B (>70-90% degradation)) | D (D (<50% degradation)) | A (A (>90% degradation))
